This note sets out measurements from PubChem BioAssay (NCI).

Common to all, as to assay: NCI-60 cell line screen, 48 h
In assay [1] the test system is K-562 leukemia.
The test system of assay [2] is HCT-116 colon.
Assay [3] has as its system SK-MEL-5 melanoma.
Assay [4] has as its system CAKI-1 renal.
The test system of assay [5] is NCI-H460 lung.
The subject of assay [6] is COLO 205 colon.
The test system of assay [7] is HCT-15 colon.
The test system of assay [8] is MCF7 breast.
The test system of assay [9] is SF-539 CNS.
The subject of assay [10] is MALME-3M melanoma.

Each structure is given as a SMILES string. Values joined by “and” are separate entries in the source; they are usually repeats but may differ in a detail not shown here. Identical values can stand only once.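 Interpolation was linear, between the two tested concentrations surrounding the appropriate level; five concentrations were tested over 48 hours in 96-well plates. The concentration for 50% growth inhibition is given as GI50. TGI is the concentration that stops growth completely.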

Turning to `O=C1CC(c2ccccc2)C2(C(=O)NC(=S)NC2=O)C(c2ccccc2)C1` (stereo not given), the TGI in assay [1], in [2], in assay [3], in assay [4], in [5] and in assay [6] was greater than 75 µM in each case. In addition, the TGI in assay [7], in assay [8], in assay [9] and in assay [10] was greater than 75 µM throughout.

As for `COc1ccc(C2OC(=O)c3ccc4ccccc4c32)c(C)c1` (stereo not given), the TGI in assay [1] was greater than 75.7 µM; in [2] it was greater than 45.7 µM; in [3], 17.6 µM; in assay [4] it was greater than 100 µM; in assay [5], greater than 54.3 µM; in assay [6], greater than 35.1 µM. Further, the TGI in [7] is greater than 60.5 µM; in assay [8], 29.9 µM; in assay [9] it was 40.5 µM; in [10], greater than 100 µM.

For `C=C(C(=O)O)[C@@H]1C[C@@H]2O[C@H]1[C@@H](O)[C@@H](C)CCCC(C)=CCC[C@@]2(C)O`, the GI50 was 32.3 µM and 83.5 µM in [1]; 37.2 µM and > 100 µM in assay [4]. In addition, the TGI in assay [1], in assay [2], in assay [3], in assay [4], in [5] and in assay [6] was greater than 100 µM throughout. The TGI in assay [7], in [8], in [9] and in [10] was greater than 100 µM throughout.

As for `O=C(/C=C/c1ccccc1)CSc1ncn[nH]1`, the TGI in [1], in assay [2], in [3], in assay [4], in [5] and in assay [6] was greater than 100 µM in each case. For the same compound, the TGI in assay [7], in assay [8], in assay [9] and in assay [10] was greater than 100 µM each time.

Turning to `O=C(O)Cc1ccc(Nc2nc3cc(C(F)(F)F)ccc3nc2C(=O)O)cc1`, the TGI in assay [2], in assay [3], in assay [4], in assay [5], in assay [6] and in assay [7] was greater than 100 µM each time. The TGI in assay [8], in assay [9] and in assay [10] was greater than 100 µM in each case.

Consider `Cc1ccc(/C=N/n2c(-c3ccc(C)cc3)n[nH]c2=O)cc1`, for which the TGI in assay [1], in assay [2], in assay [3], in [4], in assay [5] and in assay [6] was greater than 100 µM in each case. The TGI in [7], in assay [8], in assay [9] and in assay [10] was greater than 100 µM in each case.

In the case of `c1cc2c(s1)-c1sccc1C21OCCO1`, the TGI in assay [1], in assay [2], in assay [3], in assay [4], in assay [5] and in assay [6] was greater than 100 µM throughout. Further, the TGI in [7], in assay [8], in [9] and in [10] was greater than 100 µM in each case.

With `COC(=O)CCC1=C(CC(=O)OC)C(C)(OC)N=C1NC(=O)OCc1ccccc1` (stereo not given), the TGI in [1], in assay [2], in [3], in assay [4], in [5] and in [6] was greater than 100 µM throughout. Further, the TGI in assay [7], in [8], in assay [9] and in [10] was greater than 100 µM throughout.

Consider `COc1cc2c(cc1OC)C(=O)N(c1ccc(O)cc1)C2=O`, for which the TGI in assay [1], in assay [2], in assay [3], in assay [4], in assay [5] and in assay [6] was greater than 100 µM throughout. Further, the TGI in assay [7], in assay [8], in [9] and in assay [10] was greater than 100 µM each time.

`CCCC(CCC(N)=O)(CCC(N)=O)[N+](=O)[O-]`: the TGI in [1], in assay [2], in [3], in assay [4], in assay [5] and in assay [6] was greater than 100 µM in each case. Further, the TGI in [7], in [8], in assay [9] and in [10] was greater than 100 µM each time.

Turning to `CCOC(=O)C1=C(O)C2C3CC4C2C(O)=C(C(=O)OCC)C2C1C3C42` (stereo not given), the TGI in [1], in assay [2], in [3], in assay [4], in assay [5] and in assay [6] was greater than 100 µM each time. Also, the TGI in [7], in assay [8], in assay [9] and in [10] was greater than 100 µM each time.

As to `NC(N)=NC(N)=Nc1ccc(S(=O)(=O)O)cc1`, the TGI in [1], in [2], in [3], in assay [4], in assay [5] and in [6] was greater than 100 µM throughout. The TGI in [7], in assay [8], in assay [9] and in [10] was greater than 100 µM throughout.

`O=C(OC1C2OC(=O)c3cc(O)c(O)c(O)c3Oc3cc4c(c(O)c3O)-c3c(cc(O)c(O)c3O)C(=O)OCC3OC(O)C(OC(=O)c5cc(O)c(O)c(O)c5Oc5cc6c(c(O)c5O)-c5c(cc(O)c(O)c5O)C(=O)OC1C(COC6=O)OC2O)C(OC(=O)c1cc(O)c(O)c(O)c1)C3OC4=O)c1cc(O)c(O)c(O)c1` (stereo not given): the TGI in assay [1] is 42.8 µM; in [2], 57.2 µM; in assay [3], greater than 100 µM; in assay [4], greater than 100 µM; in [5], 14.3 µM; in assay [6] it was 54 µM. The TGI in [8] is greater than 100 µM; in [9], 65.6 µM; in assay [10] it was greater than 100 µM.

For `c1cc2c(cc1NC1=NCCO1)OCO2`, the TGI in assay [1], in [2], in assay [3], in [4], in assay [5] and in assay [6] was greater than 100 µM each time. Moreover, the TGI in [7], in [8], in [9] and in [10] was greater than 100 µM throughout.

On to `COc1cc(C(C)O)c(S(=O)(=O)CC(C)O)nn1` (stereo not given), for which the TGI in [1], in assay [2], in assay [3], in [4], in [5] and in assay [6] was greater than 100 µM throughout. Further, the TGI in [7], in assay [8], in assay [9] and in [10] was greater than 100 µM each time.

For the compound `[N-]=[N+]=NC1OC(=O)C(Cl)=C1N=P(c1ccccc1)(c1ccccc1)c1ccccc1` (stereo not given), the TGI in assay [1], in assay [2], in [3], in assay [4], in assay [5] and in assay [6] was greater than 10 µM each time. Moreover, the TGI in assay [7], in [8], in assay [9] and in assay [10] was greater than 10 µM in each case.

Consider `Cc1ccc(NC=O)c(-c2c(N)[nH]c(=S)[nH]c2=O)c1`, for which the TGI in [1], in assay [2], in [3], in assay [4], in assay [6] and in assay [7] was greater than 100 µM throughout. Further, the TGI in assay [8], in [9] and in assay [10] was greater than 100 µM in each case.

As to `NC(=O)N/N=C(/CC1C(=O)Oc2ccccc21)c1ccccc1O` (stereo not given), the TGI in [1], in assay [2], in assay [3], in assay [4], in assay [5] and in assay [6] was greater than 100 µM in each case. Further, the TGI was greater than 100 µM in assay [7], greater than 100 µM in [8], 91.1 µM in assay [9] and greater than 100 µM in [10].

Regarding `O=C1/C(=C\c2cccc(Oc3ccccc3)c2)SC(c2ccccc2)N1c1ccccc1` (stereo not given), the TGI in assay [1], in [2], in assay [3], in assay [4], in assay [5] and in [6] was greater than 100 µM in each case. For the same compound, the TGI in assay [7] is greater than 100 µM; in [8] it was greater than 100 µM; in assay [9] it was 93.6 µM; in [10], greater than 100 µM.

For `CCN1CCC(O)(c2ccc(Oc3ccc(F)cc3)cc2)C(C(=O)c2ccc(Oc3ccc(F)cc3)cc2)C1` (stereo not given), the TGI is greater than 100 µM in [1]; 27.4 µM in assay [2]; 25.7 µM in [4]; 33.5 µM in assay [6]; 23.7 µM in [7]; 26 µM in assay [8]. For the same compound, the TGI in [9] was 33.2 µM; in assay [10], 31 µM.

Consider `CN1CN(c2ccccc2)C2(CCN(CC(C)(c3ccc(F)cc3)C3OCCCO3)CC2)C1=O` (stereo not given), for which the TGI in assay [1] came to 38.6 µM; in assay [2], 28.7 µM; in assay [3], 30.1 µM; in assay [4], 65.3 µM; in [6], 44.3 µM; in assay [7] it was 33.9 µM. For the same compound, the figures for the TGI in assay [8], in assay [9] and in assay [10] were 30.2 µM, 26.5 µM and 30 µM, respectively.

For the compound `CCCCCCCCCCCCCCCCNC(=O)C(=O)/C=C(\O)c1ccc(C)cc1`, the TGI in [1], in assay [3], in assay [4], in assay [5], in assay [6] and in assay [7] was greater than 10 µM throughout. Besides, the TGI in assay [8], in assay [9] and in [10] was greater than 10 µM throughout.

For `O=C(/C=C/c1ccc(-c2ccccc2)cc1)NCc1ccc(C(=O)NCc2ccccc2)cc1`, the TGI in [2], in [3], in [4], in [5], in assay [6] and in assay [7] was greater than 100 µM each time. The TGI in assay [8], in assay [9] and in assay [10] was greater than 100 µM in each case.

For the compound `CC1=NC2=Nc3nc(C)cc[n+]3CN2C=C1`, the TGI in assay [2], in [3], in assay [4], in assay [5], in [6] and in assay [7] was greater than 100 µM in each case. Besides, the TGI in assay [8], in [9] and in assay [10] was greater than 100 µM throughout.

On to `CC(=N\N)/C(C)=N/N=C(C)/C(C)=N/N`, for which the TGI in [2], in assay [3], in [4], in [5], in [6] and in [7] was greater than 100 µM each time. The TGI in assay [8], in assay [9] and in assay [10] was greater than 100 µM throughout.

Turning to `Cc1ccc2c(c1)C(=O)c1nc(C)ccc1C2=O`, the TGI in assay [1] is greater than 100 µM; in [2], 60.6 µM; in [3] it was 19.7 µM; in assay [4], 76.9 µM; in [6], 42.7 µM; in assay [7] it was 48.1 µM. For the same compound, the TGI in assay [8] was greater than 100 µM; in [9] it was greater than 100 µM; in assay [10] it was 24.7 µM.

Take `CC(=O)OCC1OC(n2cc(F)c(=O)[nH]c2=O)C(NC(=O)OCc2ccccc2)C(OC(C)=O)C1OC(C)=O` (stereo not given): the TGI in [1], in [2], in assay [3], in [4], in assay [5] and in [7] was greater than 100 µM throughout. The TGI in assay [8], in [9] and in assay [10] was greater than 100 µM throughout.
